Source: US7714173B2, “Method for purifying terephthalaldehyde” (LG Chem, Ltd., priority 2006, dated 2010)
≈ marks a conversion by molar mass, not a printed value. Blank lines part the entries; values can stand above or below the molecule they belong to.

How the values were obtained:
[1] = physchem
[2] = Solubility of terephthalaldehyde and major impurities in water and dimethylsulfoxide; conditions: solvent H2O, measured at 25° C.
[3] = Stability of terephthalaldehyde in the dissolving solvent; assay type: physicochemical
Source text: In a method for purifying terephthalaldehyde which comprises dissolving crude terephthalaldehyde in a solvent and then re-crystallizing the solution, using an anti-solvent, the present invention is characterized by using dimethylsulfoxide as the solvent. In the method for purifying terephthalaldehyde according to the present invention, usual alcohols or ethers may be used as a solvent dissolving terephthalaldehyde. However, dimethylsulfoxide according to the present invention has more excellent solubility of terephthalaldehyde and major impurities than those of the alcohols or the ethers, and may prepare terephthalaldehyde in a higher yield and purity.

[4] = 25 °C, organic solvent or mixture

SMILES: O=Cc1ccc(O)cc1 [4-HBA, 4-hydroxybenzaldehyde]
- solubility [1, 4]: 1000 mg/mL (≈ 8190 mM)
- solubility ([1]; 25 °C, water): 2.5 mg/mL (≈ 20.5 mM)

SMILES: O=Cc1ccc(C=O)cc1 [terephthalaldehyde]
- Stability in alcohols such as methanol ([3]; alcohols such as methanol as solvent): changed into a material such as acetal
- Stability in dimethylsulfoxide ([3]; dimethylsulfoxide as solvent): such change is not occurred

More lines, now with the values ahead:

- solubility ([1]; dimethylsulfoxide (DMSO), 25 °C, organic solvent or mixture): 1000 mg/mL (≈ 6660 mM)
- solubility ([1]; water, 25 °C): < 1.67 mg/mL
SMILES: O=Cc1ccc(C(=O)O)cc1 [4-CBA, 4-carboxybenzaldehyde]

- solubility [1, 4]: 1000 mg/mL (≈ 9080 mM)
- solubility ([1]; 25 °C, water): 20 mg/mL (≈ 182 mM)
SMILES: Oc1ccc(O)cc1 [HQ, hydroquinone]

- Solubility in H2O [2]: <1.67 mg/mL
SMILES: O=C(O)c1ccc(C(=O)O)cc1 [TPA, terphthalic acid]
